According to ChEMBL document CHEMBL1201862, “PubChem BioAssay data set” (2004):
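These data come from cells grown in 96-well plates and exposed to compound for 48 hours at five concentrations. GI50: concentration for 50% inhibition of growth.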 Active and inactive are the calls of the source. Rule as the data show it: active = GI50 up to about 1.1 µM and inactive = higher.

Columns and labels:
Experiment in all cases: growth of human tumour cells (NCI), 48 h
[1] = system: DU-145
[2] = system: U-251
[3] = system: CCRF-CEM
[4] = system: MCF7
[5] = system: SN12C
[6] = system: SF-539
[7] = system: EKVX
[8] = system: TK-10
[9] = system: SK-MEL-5
[10] = system: HOP-92
[11] = system: UO-31
[12] = system: SF-295
[13] = system: HOP-62
[14] = system: Malme-3M
[15] = system: RPMI-8226
[16] = system: SR
[17] = system: PC-3
[18] = system: IGROV-1
[19] = system: NCI/ADR-RES
[20] = system: NCI-H460
[21] = system: UACC-257
[22] = system: Hs-578T
[23] = system: OVCAR-8
[24] = system: 786-0
[25] = system: HT-29
[26] = system: T47D
[27] = system: HL-60
[28] = system: M14
[29] = system: BT-549
[30] = system: HCT-116
[31] = system: SF-268
[32] = system: SK-MEL-28
[33] = system: SNB-75
[34] = system: ACHN
[35] = system: MDA-MB-435
[36] = system: LOX IMVI
[37] = system: CAKI-1
[38] = system: HCT-15
[39] = system: OVCAR-5
[40] = system: OVCAR-3
[41] = system: SW-620
[42] = system: MDA-N
[43] = system: UACC-62
[44] = system: SK-OV-3
[45] = system: SNB-19
[46] = system: K562
[47] = system: RXF 393
[48] = system: NCI-H23
[49] = system: COLO 205
[50] = system: MOLT-4
[51] = system: HCC 2998
[52] = system: NCI-H522
[53] = system: MDA-MB-231
[54] = system: KM12
[55] = system: A549
[56] = system: SK-MEL-2
[57] = system: OVCAR-4
[58] = system: NCI-H226

COc1cc(Br)cc2cc(-c3cn4ccsc4n3)c(=O)oc12
GI50 [1]: 30.5 µM (inactive)
GI50 [2]: 30 µM (inactive)
GI50 [3]: 35 µM (inactive)
GI50 [4]: 7.19 µM (inactive)
GI50 [5]: 28.1 µM (inactive)
GI50 [6]: 36.2 µM (inactive)
GI50 [7]: 29.2 µM (inactive)
GI50 [8]: 64.7 µM (inactive)
GI50 [9]: 19.7 µM (inactive)
GI50 [10]: 11.1 µM (inactive)
GI50 [11]: 23.8 µM (inactive)
GI50 [12]: 26.8 µM (inactive)
GI50 [13]: 29.1 µM (inactive)
GI50 [14]: 91.2 µM (inactive)
GI50 [15]: 33.2 µM (inactive)
GI50 [16]: 25.9 µM (inactive)
GI50 [17]: 25.2 µM (inactive)
GI50 [18]: 19.9 µM (inactive)
GI50 [19]: 34.2 µM (inactive)
GI50 [20]: 32 µM (inactive)
GI50 [21]: 37.6 µM (inactive)
GI50 [22]: 41.5 µM (inactive)
GI50 [23]: 45.8 µM (inactive)
GI50 [24]: 42.8 µM (inactive)
GI50 [25]: 40.2 µM (inactive)
GI50 [26]: 19.6 µM (inactive)
GI50 [27]: 29 µM (inactive)
GI50 [28]: 27.9 µM (inactive)
GI50 [29]: 20.3 µM (inactive)
GI50 [30]: 25.6 µM (inactive)
GI50 [31]: 34.3 µM (inactive)
GI50 [32]: 46.2 µM (inactive)
GI50 [33]: 32.1 µM (inactive)
GI50 [34]: 34.8 µM (inactive)
GI50 [35]: 21.6 µM (inactive)
GI50 [36]: 49.4 µM (inactive)
GI50 [37]: 35 µM (inactive)
GI50 [38]: 33 µM
GI50 [39]: 68.1 µM (inactive)
GI50 [40]: 35 µM (inactive)
GI50 [41]: 36 µM (inactive)
GI50 [42]: 17 µM (inactive)
GI50 [43]: 22.2 µM (inactive)
GI50 [44]: 33.7 µM (inactive)
GI50 [45]: 30.4 µM (inactive)
GI50 [46]: 32.1 µM (inactive)
GI50 [47]: 24.8 µM (inactive)
GI50 [48]: 39.1 µM (inactive)
GI50 [49]: 57.3 µM (inactive)
GI50 [50]: 32 µM (inactive)
GI50 [51]: 7.24 µM (inactive)
GI50 [52]: 31 µM (inactive)
GI50 [53]: 20.6 µM (inactive)
GI50 [54]: 18.9 µM (inactive)
GI50 [55]: 30.3 µM (inactive)
GI50 [56]: 58.9 µM (inactive)
GI50 [57]: 51.2 µM (inactive)

CC(=O)C12C[C@](C#N)(N3CCCCCC3)C1C=Cc1ccccc12 (stereo not given in full)
GI50 [1]: > 100 µM (inactive)
GI50 [2]: > 100 µM (inactive)
GI50 [3]: > 100 µM (inactive)
GI50 [4]: > 100 µM (inactive)
GI50 [5]: > 100 µM (inactive)
GI50 [6]: > 100 µM (inactive)
GI50 [7]: > 100 µM (inactive)
GI50 [8]: > 100 µM (inactive)
GI50 [9]: > 100 µM (inactive)
GI50 [11]: > 100 µM (inactive)
GI50 [12]: > 100 µM (inactive)
GI50 [13]: > 100 µM (inactive)
GI50 [15]: > 100 µM (inactive)
GI50 [16]: > 100 µM (inactive)
GI50 [17]: > 100 µM (inactive)
GI50 [18]: > 100 µM (inactive)
GI50 [19]: > 100 µM (inactive)
GI50 [20]: > 100 µM (inactive)
GI50 [21]: > 100 µM (inactive)
GI50 [22]: > 100 µM (inactive)
GI50 [23]: > 100 µM (inactive)
GI50 [24]: > 100 µM (inactive)
GI50 [25]: > 100 µM (inactive)
GI50 [26]: > 100 µM (inactive)
GI50 [27]: > 100 µM (inactive)
GI50 [28]: > 100 µM (inactive)
GI50 [29]: > 100 µM (inactive)
GI50 [30]: > 100 µM (inactive)
GI50 [31]: > 100 µM (inactive)
GI50 [32]: > 100 µM (inactive)
GI50 [33]: > 100 µM (inactive)
GI50 [34]: > 100 µM (inactive)
GI50 [35]: > 100 µM (inactive)
GI50 [37]: > 100 µM (inactive)
GI50 [38]: > 100 µM
GI50 [40]: > 100 µM (inactive)
GI50 [41]: > 100 µM (inactive)
GI50 [42]: > 100 µM (inactive)
GI50 [43]: > 100 µM (inactive)
GI50 [44]: > 100 µM (inactive)
GI50 [45]: > 100 µM (inactive)
GI50 [46]: > 100 µM (inactive)
GI50 [47]: > 100 µM (inactive)
GI50 [48]: > 100 µM (inactive)
GI50 [49]: > 100 µM (inactive)
GI50 [50]: > 100 µM (inactive)
GI50 [51]: > 100 µM (inactive)
GI50 [52]: > 100 µM (inactive)
GI50 [53]: > 100 µM (inactive)
GI50 [54]: > 100 µM (inactive)
GI50 [55]: > 100 µM (inactive)
GI50 [58]: > 100 µM (inactive)
GI50 [57]: > 100 µM (inactive)
